Measured values: US12269800B2, “Delivery of therapeutic alkaloid compounds” (priority 2021, dated 2025)
Where two headings read alike, the source gives them in different places.

Columns and labels:
[1] = Hydrolysis Assay of Example A2, Condition 1 (SGF with pepsin, pH 1.5, 37° C.); assay type: physicochemical; conditions: SGF with pepsin pH 1.5, 37° C.; for Condition 1 Conversion (%): 0.5 mM; for Condition 1 Conversion (%), second value of a/b: value after the slash
[2] = 5 µM
[3] = 5 µM; remark: listed apart in the source
Procedure: 50 uL aliquots of positive controls and test compounds spiked into rat or human plasma (n=2) were added to a pre-warmed plate (37° C.) and shaken at 50 rpm. At each respective time point, the reaction was stopped by adding 500 μL of acetonitrile containing internal standards (100 nM aprozolam, 200 nM caffeine, 100 nM tolbutamide). All samples were vortexed for 10 minutes, followed by centrifugation at 3,220 g for 30 minutes to precipitate proteins. 100 μL of the supernatant is transferred to a new plate. The supernatant will be diluted with ultrapure water according to the LC-MS signal response and peak shape.

For `C=CC1OC2(CC[C@@]3(c4ccc(OC)c(OC)c4)CCN(C)[C@H]3C2)OC1C=C` (stereo partly drawn) [Compound 213, (3′aS,7′aS)-3′a-(3,4-dimethoxyphenyl)-1′-methyl-4,5-divinyl-spiro[1,3-dioxolane-2,6′-2,3,4,5,7,7a-hexahydroindole]], the “Condition 1 Conversion (%)” value ([1]; time 1 min) was 0%, the “Condition 1 Conversion (%)” value ([1]; time 5 min) was 0% and the “Condition 1 Conversion (%)” value ([1]; time 30 min) was 0%. The “Condition 1 Conversion (%)” value ([1]; time 1 h) was 0%, the “Condition 1 Conversion (%)” value ([1]; time 4 h) was 0% and the “Condition 1 Conversion (%)” value ([1]; time 24 h) was 0%.
With `COc1ccc([C@]23CCN(C)[C@H]2CC2(CC3)OCC(COCc3ccccc3)O2)cc1OC` (stereo partly drawn) [Compound 215] the “Condition 1 Conversion (%)” value ([1]; time 1 min) was 0%, the “Condition 1 Conversion (%)” value ([1]; time 5 min) was 0% and the “Condition 1 Conversion (%)” value ([1]; time 30 min) was 6.1%. For the same compound, the “Condition 1 Conversion (%)” value ([1]; time 1 h) was 15.2%, the “Condition 1 Conversion (%)” value ([1]; time 4 h) was 25.8% and the “Condition 1 Conversion (%)” value ([1]; time 24 h) was 46.8%.
With `COc1ccc([C@@]23CC/C(=N/OC(C)(C)OC)C[C@@H]2N(C)CC3)cc1OC` [Compound 219, (Z,3aS,7aS)-3a-(3,4-dimethoxyphenyl)-N-(1-methoxy-1-methyl-ethoxy)-1-methyl-2,3,4,5,7,7a-hexahydroindol-6-imine] the “Condition 1 Conversion (%)” value ([1]; time 1 min) was 100%, the “Condition 1 Conversion (%)” value ([1]; time 5 min) was 100% and the “Condition 1 Conversion (%)” value ([1]; time 30 min) was 0%. The “Condition 1 Conversion (%)” value ([1]; time 1 h) was 0%, the “Condition 1 Conversion (%)” value ([1]; time 4 h) was 0% and the “Condition 1 Conversion (%)” value ([1]; time 24 h) was 0%. The “Condition 1 Conversion (%), second value of a/b” value ([1]; time 1 min) was 0%, the “Condition 1 Conversion (%), second value of a/b” value ([1]; time 5 min) was 0% and the “Condition 1 Conversion (%), second value of a/b” value ([1]; time 30 min) was 100%. For the same compound, the “Condition 1 Conversion (%), second value of a/b” value ([1]; time 1 h) was 100%, the “Condition 1 Conversion (%), second value of a/b” value ([1]; time 4 h) was 100% and the “Condition 1 Conversion (%), second value of a/b” value ([1]; time 24 h) was 100%.
With `COc1ccc([C@@]23CCC(OC(=O)c4c(C)cc(C)cc4C)=C[C@@H]2N(C)CC3)cc1OC` [Compound 356, (3aS,7aS)-3a-(3,4-dimethoxyphenyl)-1-methyl-2,3,3a,4,5,7a-hexahydro-1H-indol-6-yl 2,4,6-trimethylbenzoate] the “Rat Plasma Prodrug (%)” value ([2]; 0 min) was 100.0%, the “Rat Plasma Prodrug (%)” value ([2]; 10 min) was over 99% and the “Rat Plasma Prodrug (%)” value ([2]; 30 min) was over 99%. For the same compound, the “Rat Plasma Prodrug (%)” value ([2]; 60 min) was over 99%, the “Rat Plasma Prodrug (%)” value ([2]; 120 min) was over 99% and the “Rat Plasma Prodrug (%)” value ([2]; 240 min) was 95.8%. For the same compound, the “Human Plasma Prodrug (%)” value ([3]; 0 min) was 100.0%, the “Human Plasma Prodrug (%)” value ([3]; 10 min) was over 99% and the “Human Plasma Prodrug (%)” value ([3]; 30 min) was over 99%. For the same compound, the “Human Plasma Prodrug (%)” value ([3]; 60 min) was over 99%, the “Human Plasma Prodrug (%)” value ([3]; 120 min) was over 99% and the “Human Plasma Prodrug (%)” value ([3]; 240 min) was over 99%.
With `CCCCCCCC(=O)OC1=C[C@@H]2N(C)CC[C@]2(c2ccc(OC)c(OC)c2)CC1` [Compound 395, (3aS,7aS)-3a-(3,4-dimethoxyphenyl)-1-methyl-2,3,3a,4,5,7a-hexahydro-1H-indol-6-yl octanoate] the “Rat Plasma Prodrug (%)” value ([2]; 0 min) was 100.0%, the “Rat Plasma Prodrug (%)” value ([2]; 10 min) was 0.3% and the “Rat Plasma Prodrug (%)” value ([2]; 30 min) was 0.1%. For the same compound, the “Rat Plasma Prodrug (%)” value ([2]; 60 min) was 0.1%, the “Rat Plasma Prodrug (%)” value ([2]; 120 min) was 0.1% and the “Rat Plasma Prodrug (%)” value ([2]; 240 min) was 0.1%. For the same compound, the “Human Plasma Prodrug (%)” value ([3]; 0 min) was 100.0%, the “Human Plasma Prodrug (%)” value ([3]; 10 min) was 13.9% and the “Human Plasma Prodrug (%)” value ([3]; 30 min) was 3.5%. The “Human Plasma Prodrug (%)” value ([3]; 60 min) was 1.1%, the “Human Plasma Prodrug (%)” value ([3]; 120 min) was 0.3% and the “Human Plasma Prodrug (%)” value ([3]; 240 min) was 0.1%.
In the case of `COc1ccc([C@@]23CCC(OC(=O)CCN)=C[C@@H]2N(C)CC3)cc1OC` [Compound 397, (3aS,7aS)-3a-(3,4-dimethoxyphenyl)-1-methyl-2,3,3a,4,5,7a-hexahydro-1H-indol-6-yl 3-aminopropanoate], the “Rat Plasma Prodrug (%)” value ([2]; 0 min) is reported as 100.0%, the “Rat Plasma Prodrug (%)” value ([2]; 10 min) is reported as 10.5% and the “Rat Plasma Prodrug (%)” value ([2]; 30 min) is reported as 0.5%. For the same compound, the “Rat Plasma Prodrug (%)” value ([2]; 60 min) was 0.1%, the “Rat Plasma Prodrug (%)” value ([2]; 120 min) was 0.1% and the “Rat Plasma Prodrug (%)” value ([2]; 240 min) was 0.1%. The “Human Plasma Prodrug (%)” value ([3]; 0 min) was 100.0%, the “Human Plasma Prodrug (%)” value ([3]; 10 min) was 2.2% and the “Human Plasma Prodrug (%)” value ([3]; 30 min) was 0.5%. The “Human Plasma Prodrug (%)” value ([3]; 60 min) was 0.1%, the “Human Plasma Prodrug (%)” value ([3]; 120 min) was 0.2% and the “Human Plasma Prodrug (%)” value ([3]; 240 min) was 0.0%.
In the case of `CCCC(CC)CC(=O)OC1=C[C@@H]2N(C)CC[C@]2(c2ccc(OC)c(OC)c2)CC1` (stereo partly drawn) [Compound 398, (3aS,7aS)-3a-(3,4-dimethoxyphenyl)-1-methyl-2,3,3a,4,5,7a-hexahydro-1H-indol-6-yl 3-ethylhexanoate], the “Rat Plasma Prodrug (%)” value ([2]; 0 min) is reported as 100.0%, the “Rat Plasma Prodrug (%)” value ([2]; 10 min) is reported as 2.8% and the “Rat Plasma Prodrug (%)” value ([2]; 30 min) is reported as 0.7%. The “Rat Plasma Prodrug (%)” value ([2]; 60 min) was 0.1%, the “Rat Plasma Prodrug (%)” value ([2]; 120 min) was 0.0% and the “Rat Plasma Prodrug (%)” value ([2]; 240 min) was 0.0%. For the same compound, the “Human Plasma Prodrug (%)” value ([3]; 0 min) was 100.0%, the “Human Plasma Prodrug (%)” value ([3]; 10 min) was 96.4% and the “Human Plasma Prodrug (%)” value ([3]; 30 min) was 85.0%. The “Human Plasma Prodrug (%)” value ([3]; 60 min) was 72.4%, the “Human Plasma Prodrug (%)” value ([3]; 120 min) was 51.6% and the “Human Plasma Prodrug (%)” value ([3]; 240 min) was 25.5%.
With `COc1ccc([C@@]23CCC(OC(=O)CCC(C)C)=C[C@@H]2N(C)CC3)cc1OC` [Compound 399, (3aS,7aS)-3a-(3,4-dimethoxyphenyl)-1-methyl-2,3,3a,4,5,7a-hexahydro-1H-indol-6-yl 4-methylpentanoate] the “Rat Plasma Prodrug (%)” value ([2]; 0 min) was 100.0%, the “Rat Plasma Prodrug (%)” value ([2]; 10 min) was 0.0% and the “Rat Plasma Prodrug (%)” value ([2]; 30 min) was 0.0%. For the same compound, the “Rat Plasma Prodrug (%)” value ([2]; 60 min) was 0.0%, the “Rat Plasma Prodrug (%)” value ([2]; 120 min) was 0.0% and the “Rat Plasma Prodrug (%)” value ([2]; 240 min) was 0.0%. The “Human Plasma Prodrug (%)” value ([3]; 0 min) was 100.0%, the “Human Plasma Prodrug (%)” value ([3]; 10 min) was 5.6% and the “Human Plasma Prodrug (%)” value ([3]; 30 min) was 1.1%. For the same compound, the “Human Plasma Prodrug (%)” value ([3]; 60 min) was 0.5%, the “Human Plasma Prodrug (%)” value ([3]; 120 min) was 0.3% and the “Human Plasma Prodrug (%)” value ([3]; 240 min) was 0.2%.
With “N-[[(3aS,7aS)-3a-(3,4-dimethoxyphenyl)-1-methyl-3,4,7,7a-tetrahydro-2H-indol-6-yl]3,4-dimethoxybenzoate [Compound 302]” the “Condition 1 Conversion (%)” value ([1]; time 1 min) was 0%, the “Condition 1 Conversion (%)” value ([1]; time 5 min) was 0% and the “Condition 1 Conversion (%)” value ([1]; time 30 min) was 0%. For the same compound, the “Condition 1 Conversion (%)” value ([1]; time 1 h) was 0%, the “Condition 1 Conversion (%)” value ([1]; time 4 h) was 0% and the “Condition 1 Conversion (%)” value ([1]; time 24 h) was 0%.
